Results reported in patent US11224604B2, “Treatment of graft versus host disease in transplant patients” (PRIOTHERA LIMITED, priority 2013, dated 2022).

Tested on: lethal GvHD in mice
Test: lethal GvHD in mice (BALB/c splenic cells into cyclophosphamide-treated BDF1 mice)
Format: in vivo
Settings: day 1 to day 20
Experimental: Female BALB/cAnNCrj mice and female Crj:BDF1 mice were purchased from CHARLES RIVER JAPAN and used at 10 weeks of age as donors and recipients, respectively.
Spleens were collected from donor BALB/c mice. […] The single cell suspension was passed through a cell strainer (70 um, FALCON). The filtrate was centrifuged to collect the cell pellet. […] The number of nucleated cells in the suspension was calculated by staining using Turk's solution. […] This suspension served as a splenic cell suspension.
Recipient BDF1 mice were treated with a dose of cyclophosphamide (SHIONOGI & CO., LTD.) at 300 mg/kg intraperitoneally on day0. One day after cyclophosphamide treatment, the BDF1 mice were intravenously injected with 0.25 mL
(5×10^7 cells/mouse) of the splenic cell suspension from BALB/c mice to induce lethal GvHD.
Treatment with a Compound (Control/CsA/KRP203)
The compounds were orally administrated once a day from day 1 (just after injection of the splenic cells) to day 20. The mice were observed until day 70.

Q: Which results are given for NC(CO)(CO)CCc1ccc(Sc2cccc(OCc3ccccc3)c2)cc1Cl [KRP-203, 2-amino-2-[4-(3-benzyloxyphenylthio)-2-chlorophenyl]ethyl-propane-1,3-diol]?
A: % Survival (KRP-203 0.01 mg/kg orally once a day, Day 5 after injection of the splenic cells): 100%; % Survival (KRP-203 0.01 mg/kg orally once a day, Day 8 after injection of the splenic cells): 89%; % Survival (KRP-203 0.01 mg/kg orally once a day, Day 10 after injection of the splenic cells): 67%; % Survival (KRP-203 0.01 mg/kg orally once a day, Day 12 after injection of the splenic cells): 44%; % Survival (KRP-203 0.01 mg/kg orally once a day, Day 20 after injection of the splenic cells): 44%; % Survival (KRP-203 0.01 mg/kg orally once a day, Day 25 after injection of the splenic cells): 44%; % Survival (KRP-203 0.01 mg/kg orally once a day, Day 30 after injection of the splenic cells): 44%; % Survival (KRP-203 0.01 mg/kg orally once a day, Day 40 after injection of the splenic cells): 33%; % Survival (KRP-203 0.01 mg/kg orally once a day, Day 70 after injection of the splenic cells): 33%; % Survival (KRP-203 0.03 mg/kg orally once a day, Day 5 after injection of the splenic cells): 100%; % Survival (KRP-203 0.03 mg/kg orally once a day, Day 8 after injection of the splenic cells): 100%; % Survival (KRP-203 0.03 mg/kg orally once a day, Day 10 after injection of the splenic cells): 100%; % Survival (KRP-203 0.03 mg/kg orally once a day, Day 12 after injection of the splenic cells): 100%; % Survival (KRP-203 0.03 mg/kg orally once a day, Day 20 after injection of the splenic cells): 100%; % Survival (KRP-203 0.03 mg/kg orally once a day, Day 25 after injection of the splenic cells): 100%; % Survival (KRP-203 0.03 mg/kg orally once a day, Day 30 after injection of the splenic cells): 100%; % Survival (KRP-203 0.03 mg/kg orally once a day, Day 40 after injection of the splenic cells): 100%; % Survival (KRP-203 0.03 mg/kg orally once a day, Day 70 after injection of the splenic cells): 100%; % Survival (KRP-203 0.1 mg/kg orally once a day, Day 5 after injection of the splenic cells): 100%; % Survival (KRP-203 0.1 mg/kg orally once a day, Day 8 after injection of the splenic cells): 100%; % Survival (KRP-203 0.1 mg/kg orally once a day, Day 10 after injection of the splenic cells): 100%; % Survival (KRP-203 0.1 mg/kg orally once a day, Day 12 after injection of the splenic cells): 100%; % Survival (KRP-203 0.1 mg/kg orally once a day, Day 20 after injection of the splenic cells): 100%; % Survival (KRP-203 0.1 mg/kg orally once a day, Day 25 after injection of the splenic cells): 100%; % Survival (KRP-203 0.1 mg/kg orally once a day, Day 30 after injection of the splenic cells): 100%; % Survival (KRP-203 0.1 mg/kg orally once a day, Day 40 after injection of the splenic cells): 100%; % Survival (KRP-203 0.1 mg/kg orally once a day, Day 70 after injection of the splenic cells): 100%; % Survival (KRP-203 0.3 mg/kg orally once a day, Day 5 after injection of the splenic cells): 100%; % Survival (KRP-203 0.3 mg/kg orally once a day, Day 8 after injection of the splenic cells): 100%; % Survival (KRP-203 0.3 mg/kg orally once a day, Day 10 after injection of the splenic cells): 100%; % Survival (KRP-203 0.3 mg/kg orally once a day, Day 12 after injection of the splenic cells): 100%; % Survival (KRP-203 0.3 mg/kg orally once a day, Day 20 after injection of the splenic cells): 100%; % Survival (KRP-203 0.3 mg/kg orally once a day, Day 25 after injection of the splenic cells): 100%; % Survival (KRP-203 0.3 mg/kg orally once a day, Day 30 after injection of the splenic cells): 100%; % Survival (KRP-203 0.3 mg/kg orally once a day, Day 40 after injection of the splenic cells): 100%; % Survival (KRP-203 0.3 mg/kg orally once a day, Day 70 after injection of the splenic cells): 100%; % Survival (KRP-203 1 mg/kg orally once a day, Day 5 after injection of the splenic cells): 100%; % Survival (KRP-203 1 mg/kg orally once a day, Day 8 after injection of the splenic cells): 100%; % Survival (KRP-203 1 mg/kg orally once a day, Day 10 after injection of the splenic cells): 100%; % Survival (KRP-203 1 mg/kg orally once a day, Day 12 after injection of the splenic cells): 100%; % Survival (KRP-203 1 mg/kg orally once a day, Day 20 after injection of the splenic cells): 100%; % Survival (KRP-203 1 mg/kg orally once a day, Day 25 after injection of the splenic cells): 100%; % Survival (KRP-203 1 mg/kg orally once a day, Day 30 after injection of the splenic cells): 100%; % Survival (KRP-203 1 mg/kg orally once a day, Day 40 after injection of the splenic cells): 100%; % Survival (KRP-203 1 mg/kg orally once a day, Day 70 after injection of the splenic cells): 100%
